Experimental data: ChEMBL document CHEMBL1138310, “Effect of structural and conformation modifications, including backbone cyclization, of hydrophilic hexapeptides on their intestinal permeability and enzymatic stability” (J Med Chem, 2007)
*1 amine or outer side, *2 acyl side, *3 side chain or, on linkers, in order; H or OH if unused. Where a SMILES comes first, the peptide text is derived from it. Bridges are numbered along the chain shown (N, C = ends). [ ]: non-standard residue; d: D form. Phe(Nα-(CH2)3CO) = O=C([C@H](Cc1ccccc1)N(CCCC(=O)[*:3])[*:1])[*:2]; Phe(Nα-CH2CH2CO) = O=C([C@H](Cc1ccccc1)N(CCC(=O)[*:3])[*:1])[*:2]; N(2-aminoethyl)Phe = O=C([C@H](Cc1ccccc1)N(CCN[*:3])[*:1])[*:2]; NMeF = CN[C@@H](Cc1ccccc1)C(=O)O; Sar = CNCC(=O)O

Key:
[1] = Metabolic stability in rat brush border vesicles; type: ADME
[2] = test system: Intestine; assay: Apparent permeability across rat small intestine; type: ADME, tissue-based
[3] = Apparent permeability across Caco-2 cells; type: ADME, cell-based; conditions: human
[4] = Permeability in biomimetic membrane layer DMPC vesicles assessed as decrease in fluorescence at 30 uM by colorimetric mixed-vesicle assay; type: ADME, cell membranes
[5] = Apparent permeability across Caco-2 cells via paracellular pathway; type: ADME, cell-based; conditions: human
[6] = Lipophilicity, log D in octanol at pH 7.4; type: physicochemical
[7] = Permeability across artificial membrane by PAMPA model; type: ADME; conditions: read-out: permeability

SMILES | Stability [1] | Papp [2] | Papp [3] | permeability [4] | Papp [5] | logD [6] | Papp [7]
NC(=O)[C@H](Cc1ccccc1)N1CCNC(=O)CCCCN[C@@H](Cc2ccccc2)C(=O)NCC(=O)NCC(=O)NCC(=O)NCC1=O | Stable | 5.02 ×10⁻⁶ cm/s | 1.5 ×10⁻⁶ cm/s |  |  |  | 
CN[C@@H](Cc1ccccc1)C(=O)N[C@@H](C)C(=O)N[C@@H](C)C(=O)NCC(=O)NCC(=O)N(C)[C@@H](Cc1ccccc1)C(N)=O (H-[NMeF]AAGG[NMeF]-NH2) |  | 0.99 ×10⁻⁶ cm/s | 0.87 ×10⁻⁶ cm/s |  |  |  | 
CN[C@@H](Cc1ccccc1)C(=O)NCC(=O)NCC(=O)NCC(=O)NCC(=O)N(C)[C@@H](Cc1ccccc1)C(N)=O (H-[NMeF]GGGG[NMeF]-NH2) |  | 0.73 ×10⁻⁶ cm/s | 1.82 ×10⁻⁶ cm/s | 40% |  |  | 
CN[C@@H](Cc1ccccc1)C(=O)N(C)CC(=O)NCC(=O)NCC(=O)NCC(=O)N(C)[C@@H](Cc1ccccc1)C(N)=O (H-[NMeF][Sar]GGG[NMeF]-NH2) |  | 0.75 ×10⁻⁶ cm/s | 0.58 ×10⁻⁶ cm/s | 35% | 1.74 ×10⁻⁶ cm/s |  | 
CN[C@@H](Cc1ccccc1)C(=O)N(C)CC(=O)N(C)CC(=O)NCC(=O)NCC(=O)N(C)[C@@H](Cc1ccccc1)C(N)=O (H-[NMeF][Sar][Sar]GG[NMeF]-NH2) |  | 1 ×10⁻⁶ cm/s | 0.46 ×10⁻⁶ cm/s |  |  |  | 
NC(=O)[C@H](Cc1ccccc1)N1CCNC(=O)CCCN[C@@H](Cc2ccccc2)C(=O)NCC(=O)NCC(=O)NCC(=O)NCC1=O (H-[Phe(Nα-(CH2)3CO)]GGGG[N(2-aminoethyl)Phe]-NH2; lactam 1-6) | Stable | 4.2 ×10⁻⁶ cm/s | 2.73 ×10⁻⁶ cm/s |  |  |  | 
C[C@H](NC(=O)[C@H](C)NC(=O)[C@H](Cc1ccccc1)NCCC(=O)O)C(=O)N[C@@H](C)C(=O)N[C@@H](C)C(=O)N(CCN)[C@@H](Cc1ccccc1)C(N)=O (H-[Phe(Nα-CH2CH2CO)]AAAA[N(2-aminoethyl)Phe]-NH2) |  | 0.67 ×10⁻⁶ cm/s | 0.2 ×10⁻⁶ cm/s |  |  |  | 
C[C@@H]1NC(=O)[C@H](C)NC(=O)[C@H](Cc2ccccc2)NCCC(=O)NCCN([C@@H](Cc2ccccc2)C(N)=O)C(=O)[C@H](C)NC(=O)[C@H](C)NC1=O (H-[Phe(Nα-CH2CH2CO)]AAAA[N(2-aminoethyl)Phe]-NH2; lactam 1-6) | Stable | 5.63 ×10⁻⁶ cm/s | 1.47 ×10⁻⁶ cm/s |  |  | 0.49 | 
C[C@@H]1NC(=O)[C@H](C)NC(=O)[C@H](C)NC(=O)[C@H](Cc2ccccc2)NCCC(=O)NCCN([C@@H](Cc2ccccc2)C(N)=O)C(=O)CNC1=O (H-[Phe(Nα-CH2CH2CO)]AAAG[N(2-aminoethyl)Phe]-NH2; lactam 1-6) | Stable | 6.16 ×10⁻⁶ cm/s | 3.47 ×10⁻⁶ cm/s |  |  |  | 
C[C@@H]1NC(=O)[C@H](C)NC(=O)[C@H](Cc2ccccc2)NCCC(=O)NCCN([C@@H](Cc2ccccc2)C(N)=O)C(=O)CNC(=O)CNC1=O (H-[Phe(Nα-CH2CH2CO)]AAGG[N(2-aminoethyl)Phe]-NH2; lactam 1-6) | Stable | 5.26 ×10⁻⁶ cm/s | 3.22 ×10⁻⁶ cm/s |  |  |  | 
C[C@@H]1NC(=O)[C@H](Cc2ccccc2)NCCC(=O)NCCN([C@@H](Cc2ccccc2)C(N)=O)C(=O)CNC(=O)CNC(=O)CNC1=O (H-[Phe(Nα-CH2CH2CO)]AGGG[N(2-aminoethyl)Phe]-NH2; lactam 1-6) | Stable | 3.89 ×10⁻⁶ cm/s | 1.9 ×10⁻⁶ cm/s |  |  |  | 
NC(=O)[C@H](Cc1ccccc1)N1CCNC(=O)CCN[C@@H](Cc2ccccc2)C(=O)NCC(=O)NCC(=O)NCC(=O)NCC1=O (H-[Phe(Nα-CH2CH2CO)]GGGG[N(2-aminoethyl)Phe]-NH2; lactam 1-6) | Stable |  | 5.43 ×10⁻⁶ cm/s | 40% |  | -0.41 | 
CN1CC(=O)NCC(=O)NCC(=O)NCC(=O)N([C@@H](Cc2ccccc2)C(N)=O)CCNC(=O)CCN[C@@H](Cc2ccccc2)C1=O (H-[Phe(Nα-CH2CH2CO)][Sar]GGG[N(2-aminoethyl)Phe]-NH2; lactam 1-6) | Stable | 4.58 ×10⁻⁶ cm/s | 2.22 ×10⁻⁶ cm/s | 35% | 7.58 ×10⁻⁶ cm/s | -0.57 | 
CN1CC(=O)NCC(=O)NCC(=O)N([C@@H](Cc2ccccc2)C(N)=O)CCNC(=O)CCN[C@@H](Cc2ccccc2)C(=O)N(C)CC1=O (H-[Phe(Nα-CH2CH2CO)][Sar][Sar]GG[N(2-aminoethyl)Phe]-NH2; lactam 1-6) | Stable | 3.94 ×10⁻⁶ cm/s | 2.45 ×10⁻⁶ cm/s |  |  |  | 
CN1CC(=O)NCC(=O)N([C@@H](Cc2ccccc2)C(N)=O)CCNC(=O)CCN[C@@H](Cc2ccccc2)C(=O)N(C)CC(=O)N(C)CC1=O (H-[Phe(Nα-CH2CH2CO)][Sar][Sar][Sar]G[N(2-aminoethyl)Phe]-NH2; lactam 1-6) | Stable | 5.63 ×10⁻⁶ cm/s | 2.95 ×10⁻⁶ cm/s |  |  |  | 
CN1CC(=O)N(C)CC(=O)N([C@@H](Cc2ccccc2)C(N)=O)CCNC(=O)CCN[C@@H](Cc2ccccc2)C(=O)N(C)CC(=O)N(C)CC1=O (H-[Phe(Nα-CH2CH2CO)][Sar][Sar][Sar][Sar][N(2-aminoethyl)Phe]-NH2; lactam 1-6) | Stable | 4.87 ×10⁻⁶ cm/s | 1.56 ×10⁻⁶ cm/s |  |  |  | 
Nc1nc2c(ncn2COCCO)c(=O)[nH]1 [ACYCLOVIR] |  |  |  |  |  |  | 0.01 ×10⁻⁶ cm/s
Cc1cc(=O)n(-c2ccccc2)n1C [ANTIPYRINE] |  |  |  |  |  |  | 1.18 ×10⁻⁶ cm/s
OC[C@@H](O)[C@@H](O)[C@H](O)[C@H](O)CO [MANNITOL] |  | 5 ×10⁻⁶ cm/s | 2.2 ×10⁻⁶ cm/s |  |  |  | 
C[C@]12CC[C@H]3[C@@H](CCC4=CC(=O)CC[C@@]43C)[C@@H]1CC[C@@H]2O [TESTOSTERONE] |  |  |  |  |  |  | 8.67 ×10⁻⁶ cm/s
